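These data come from cells grown in 96-well plates and exposed to compound for 48 hours at five concentrations. TGI denotes the concentration required for complete inhibition of growth.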
Key:
Assay in all cases: inhibition of tumour cell growth, NCI panel, 48 h
SK-MEL-2 melanoma = system: SK-MEL-2 melanoma
CAKI-1 renal = system: CAKI-1 renal
DU-145 prostate = system: DU-145 prostate
NCI/ADR-RES ovarian = system: NCI/ADR-RES ovarian
HCT-116 colon = system: HCT-116 colon
UO-31 renal = system: UO-31 renal
OVCAR-4 ovarian = system: OVCAR-4 ovarian
NCI-H226 lung = system: NCI-H226 lung
IGROV1 ovarian = system: IGROV1 ovarian
U251 CNS = system: U251 CNS
HS 578T breast = system: HS 578T breast
LOX IMVI melanoma = system: LOX IMVI melanoma
SF-295 CNS = system: SF-295 CNS
HOP-92 NSCLC = system: HOP-92 NSCLC
M14 melanoma = system: M14 melanoma
ACHN renal = system: ACHN renal
BT-549 breast = system: BT-549 breast
T-47D breast = system: T-47D breast
K-562 leukemia = system: K-562 leukemia
A549 NSCLC = system: A549 NSCLC
MOLT-4 leukemia = system: MOLT-4 leukemia
MDA-MB-435 = system: MDA-MB-435
SK-MEL-5 melanoma = system: SK-MEL-5 melanoma
SR leukemia = system: SR leukemia
MCF7 breast = system: MCF7 breast
MDA-MB-231 breast = system: MDA-MB-231 breast
SK-OV-3 ovarian = system: SK-OV-3 ovarian
NCI-H522 lung = system: NCI-H522 lung
UACC-257 melanoma = system: UACC-257 melanoma
RPMI-8226 leukemia = system: RPMI-8226 leukemia
KM12 colon = system: KM12 colon
RXF 393 renal = system: RXF 393 renal
SNB-75 CNS = system: SNB-75 CNS
A498 renal = system: A498 renal
SF-268 CNS = system: SF-268 CNS
SW-620 colon = system: SW-620 colon
OVCAR-5 ovarian = system: OVCAR-5 ovarian
TK-10 renal = system: TK-10 renal
UACC-62 melanoma = system: UACC-62 melanoma
SN12C renal = system: SN12C renal
HT29 colon = system: HT29 colon
786-0 renal = system: 786-0 renal
HCT-15 colon = system: HCT-15 colon
OVCAR-3 ovarian = system: OVCAR-3 ovarian
SNB-19 CNS = system: SNB-19 CNS
CCRF-CEM leukemia = system: CCRF-CEM leukemia
EKVX NSCLC = system: EKVX NSCLC
SF-539 CNS = system: SF-539 CNS
NCI-H460 lung = system: NCI-H460 lung
MDA-N = system: MDA-N
OVCAR-8 ovarian = system: OVCAR-8 ovarian
NCI-H23 lung = system: NCI-H23 lung
HL-60(TB) leukemia = system: HL-60(TB) leukemia
PC-3 prostate = system: PC-3 prostate
COLO 205 colon = system: COLO 205 colon
SK-MEL-28 melanoma = system: SK-MEL-28 melanoma
MALME-3M melanoma = system: MALME-3M melanoma
HCC-2998 colon = system: HCC-2998 colon
HOP-62 NSCLC = system: HOP-62 NSCLC

Measured: TGI

COc1ccc(NC=O)c(C(=O)CCNC(C)=O)c1
> 100 µM: SK-MEL-2 melanoma | CAKI-1 renal | DU-145 prostate | NCI/ADR-RES ovarian | HCT-116 colon | UO-31 renal | OVCAR-4 ovarian | NCI-H226 lung | IGROV1 ovarian | U251 CNS | HS 578T breast | LOX IMVI melanoma | SF-295 CNS | HOP-92 NSCLC | M14 melanoma | ACHN renal | BT-549 breast | T-47D breast | K-562 leukemia | A549 NSCLC | MOLT-4 leukemia | MDA-MB-435 | SK-MEL-5 melanoma | SR leukemia | MCF7 breast | MDA-MB-231 breast | SK-OV-3 ovarian | NCI-H522 lung | UACC-257 melanoma | RPMI-8226 leukemia | KM12 colon | RXF 393 renal | SNB-75 CNS | A498 renal | SF-268 CNS | SW-620 colon | OVCAR-5 ovarian | TK-10 renal | UACC-62 melanoma | SN12C renal | HT29 colon | 786-0 renal | HCT-15 colon | OVCAR-3 ovarian | SNB-19 CNS | CCRF-CEM leukemia | EKVX NSCLC | SF-539 CNS | NCI-H460 lung | MDA-N | OVCAR-8 ovarian | NCI-H23 lung | HL-60(TB) leukemia | PC-3 prostate | COLO 205 colon

CC1(C)C2CCC(=O)C1C(OCc1ccccc1)C2 (configuration not stated)
> 100 µM: SK-MEL-2 melanoma | CAKI-1 renal | DU-145 prostate | NCI/ADR-RES ovarian | HCT-116 colon | UO-31 renal | OVCAR-4 ovarian | NCI-H226 lung | SK-MEL-28 melanoma | IGROV1 ovarian | U251 CNS | HS 578T breast | LOX IMVI melanoma | SF-295 CNS | M14 melanoma | ACHN renal | BT-549 breast | T-47D breast | K-562 leukemia | A549 NSCLC | MOLT-4 leukemia | MDA-MB-435 | SR leukemia | MCF7 breast | MDA-MB-231 breast | SK-OV-3 ovarian | NCI-H522 lung | UACC-257 melanoma | RPMI-8226 leukemia | KM12 colon | MALME-3M melanoma | HCC-2998 colon | RXF 393 renal | SNB-75 CNS | A498 renal | SF-268 CNS | SW-620 colon | OVCAR-5 ovarian | TK-10 renal | HOP-62 NSCLC | UACC-62 melanoma | SN12C renal | HT29 colon | 786-0 renal | HCT-15 colon | OVCAR-3 ovarian | SNB-19 CNS | CCRF-CEM leukemia | SF-539 CNS | NCI-H460 lung | MDA-N | OVCAR-8 ovarian | NCI-H23 lung | HL-60(TB) leukemia | PC-3 prostate | COLO 205 colon
50.6 µM: SK-MEL-5 melanoma
